The numbers were not newly measured in patent US9834484B1, “Plant enhancer and a method of using the same” (priority 2016, dated 2017), which cites them from elsewhere.

The data set deals with tumor growth. Particulars: some studies show.

β-glucan: the inhibits tumor growth result was “more than 95%”.
